Experimental data reported in patent US8816085B2 (Takeda GmbH, priority 2009, dated 2014).

Target: T1, PDE5A1 (human PDE5 from platelets) (Homo sapiens, UniProt O76074)
T1 construct: from tissue; host or cells: platelets from fresh blood of human donors (10,000 g supernatant of sonified platelets)
Test: Inhibition of type 5 phosphodiesterase (PDE5) activity, modified SPA test
Type: biochemical
Details: PDE5-containing human platelet lysate, 0.5 μM cGMP, value classes, read-out: PDE5A1 inhibitory values [measured as −logIC50 (mol/l)] (converted)
Summary of the method: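 Enzyme source: human platelet lysate (10,000 g supernatant), with 1 μM motapizone and 10 nM PDE2 inhibitor present. SPA format in 20 mM Tris pH 7.4, 5 mM Mg2+, 0.5 μM cGMP with [3H]cGMP tracer; 5 min preincubation at 37 °C, 15 min reaction, stopped with IBMX-containing beads. IC50 by non-linear regression.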

IC50 [nM] | SMILES
1 to 10 | CCC(=O)N[C@H]1CC[C@H](NC(=O)c2c(C)[nH]c3c(-c4cc(C)ccc4OCC4CC4)ccnc23)CC1 [Example E56, 7-[2-(Cyclopropylmethoxy)-5-methylphenyl]-2-methyl-N-[trans-4-(propanoylamino)cyclohexyl]-1H-pyrrolo[3,2-b]pyridine-3-carboxamide]
1 to 10 | COCC(=O)N[C@H]1CC[C@H](NC(=O)c2c(C)[nH]c3c(-c4cc(C)ccc4OCC4CC4)ccnc23)CC1 [Example E57, 7-[2-(Cyclopropylmethoxy)-5-methylphenyl]-N-{trans-4-[(methoxyacetyl)amino]cyclohexyl}-2-methyl-1H-pyrrolo[3,2-b]pyridine-3-carboxamide]
1 to 10 | CC(=O)N[C@H]1CC[C@@H](NC(=O)c2c(C)[nH]c3c(-c4cc(C)ccc4OCC4CC4)ccnc23)CC1 [Example E58, N-[cis-4-(Acetylamino)cyclohexyl]-7-[2-(cyclopropylmethoxy)-5-methylphenyl]-2-methyl-1H-pyrrolo[3,2-b]pyridine-3-carboxamide]
1 to 10 | CCC(=O)N[C@H]1CC[C@@H](NC(=O)c2c(C)[nH]c3c(-c4cc(C)ccc4OCC4CC4)ccnc23)CC1 [Example E59, 7-[2-(Cyclopropylmethoxy)-5-methylphenyl]-2-methyl-N-[cis-4-(propanoylamino)cyclohexyl]-1H-pyrrolo[3,2-b]pyridine-3-carboxamide]
1 to 10 | COCC(=O)N[C@H]1CC[C@@H](NC(=O)c2c(C)[nH]c3c(-c4cc(C)ccc4OCC4CC4)ccnc23)CC1 [Example E60, 7-[2-(Cyclopropylmethoxy)-5-methylphenyl]-N-{cis-4-[(methoxyacetyl)amino]cyclohexyl}-2-methyl-1H-pyrrolo[3,2-b]pyridine-3-carboxamide]
< 1 | COc1cc(-c2ccnc3c(C(=O)NC4CCN(C(C)=O)CC4)c(C)[nH]c23)c(OCC2CC2)cc1F [Example E61, N-(1-Acetylpiperidin-4-yl)-7-[2-(cyclopropylmethoxy)-4-fluoro-5-methoxyphenyl]-2-methyl-1H-pyrrolo[3,2-b]pyridine-3-carboxamide]
< 1 | CCC(=O)N1CCC(NC(=O)c2c(C)[nH]c3c(-c4cc(OC)c(F)cc4OCC4CC4)ccnc23)CC1 [Example E62, 7-[2-(Cyclopropylmethoxy)-4-fluoro-5-methoxyphenyl]-2-methyl-N-(1-propanoylpiperidin-4-yl)-1H-pyrrolo[3,2-b]pyridine-3-carboxamide]
< 1 | COCC(=O)N1CCC(NC(=O)c2c(C)[nH]c3c(-c4cc(OC)c(F)cc4OCC4CC4)ccnc23)CC1 [Example E63, 7-[2-(Cyclopropylmethoxy)-4-fluoro-5-methoxyphenyl]-N-[1-(methoxyacetyl)piperidin-4-yl]-2-methyl-1H-pyrrolo[3,2-b]pyridine-3-carboxamide]
< 1 | COc1cc(-c2ccnc3c(C(=O)N[C@H]4CC[C@H](NC(C)=O)CC4)c(C)[nH]c23)c(OCC2CC2)cc1F [Example E64, N-[trans-4-(Acetylamino)cyclohexyl]-7-[2-(cyclopropylmethoxy)-4-fluoro-5-methoxyphenyl]-2-methyl-1H-pyrrolo[3,2-b]pyridine-3-carboxamide]
< 1 | CCC(=O)N[C@H]1CC[C@H](NC(=O)c2c(C)[nH]c3c(-c4cc(OC)c(F)cc4OCC4CC4)ccnc23)CC1 [Example E65, 7-[2-(Cyclopropylmethoxy)-4-fluoro-5-methoxyphenyl]-2-methyl-N-[trans-4-(propanoylamino)cyclohexyl]-1H-pyrrolo[3,2-b]pyridine-3-carboxamide]
< 1 | COCC(=O)N[C@H]1CC[C@H](NC(=O)c2c(C)[nH]c3c(-c4cc(OC)c(F)cc4OCC4CC4)ccnc23)CC1 [Example E66, 7-[2-(Cyclopropylmethoxy)-4-fluoro-5-methoxyphenyl]-N-{trans-4-[(methoxyacetyl)amino]cyclohexyl}-2-methyl-1H-pyrrolo[3,2-b]pyridine-3-carboxamide]
